Assay results reported in US10844077B2, “Thiazolyl-containing compounds for treating proliferative diseases” (Dana-Farber Cancer Institute, Inc., priority 2014, dated 2020).
Several values for one entry are separate records, joined by “and”; a condition that tells them apart may be missing. Equal entries are not always repeated.

Columns and labels:
Assay in all cases: KINATIV assay
Assay type in all cases: cell-based
[1] = biological target: PKD2 (Homo sapiens (Human), UniProt Q9BZL6); details: 1 μM, 90 minutes, BCWM.1 cells
How it was run: (§1)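 An ATP-biotin probe is applied directly to lysates of harvested cells, and the kinases it binds are identified and quantified via ACTIVX.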

[2] = biological target: RSK3 (Homo sapiens (Human), UniProt Q15349); details: 1 μM, 90 minutes, BCWM.1 cells
How it was run: as §1

[3] = tested on: Wnk1, Wnk2, Wnk4; details: 1 μM, 90 minutes, BCWM.1 cells
How it was run: as §1

[4] = biological target: LCK (Homo sapiens (Human), UniProt P06239); details: 1 μM, 90 minutes, BCWM.1 cells
How it was run: as §1

[5] = biological target: CK2a2 (Homo sapiens (Human), UniProt P19784); details: 1 μM, 90 minutes, BCWM.1 cells
How it was run: as §1

[6] = biological target: ATR (Homo sapiens (Human), UniProt Q13535); details: 1 μM, 90 minutes, BCWM.1 cells
How it was run: as §1

[7] = biological target: SRPK1 (Homo sapiens (Human), UniProt Q96SB4); details: 1 μM, 90 minutes, BCWM.1 cells
How it was run: as §1

[8] = biological target: RSK4 domain1 (Homo sapiens (Human), UniProt Q9UK32); details: 1 μM, 90 minutes, BCWM.1 cells
How it was run: as §1

[9] = tested on: MARK3, MARK4; details: 1 μM, 90 minutes, BCWM.1 cells
How it was run: as §1

[10] = biological target: CK2a1 (Homo sapiens (Human), UniProt P68400); details: 1 μM, 90 minutes, BCWM.1 cells
How it was run: as §1

[11] = biological target: TYK2 domain2 (Homo sapiens (Human), UniProt P29597); details: 1 μM, 90 minutes, BCWM.1 cells
How it was run: as §1

[12] = biological target: MAP2K7 (Homo sapiens (Human), UniProt O14733); details: 1 μM, 90 minutes, BCWM.1 cells
How it was run: as §1

[13] = biological target: PI4KB (Homo sapiens (Human), UniProt Q9UBF8); details: 1 μM, 90 minutes, BCWM.1 cells
Sequence of PI4KB (Q9UBF8 whole entry): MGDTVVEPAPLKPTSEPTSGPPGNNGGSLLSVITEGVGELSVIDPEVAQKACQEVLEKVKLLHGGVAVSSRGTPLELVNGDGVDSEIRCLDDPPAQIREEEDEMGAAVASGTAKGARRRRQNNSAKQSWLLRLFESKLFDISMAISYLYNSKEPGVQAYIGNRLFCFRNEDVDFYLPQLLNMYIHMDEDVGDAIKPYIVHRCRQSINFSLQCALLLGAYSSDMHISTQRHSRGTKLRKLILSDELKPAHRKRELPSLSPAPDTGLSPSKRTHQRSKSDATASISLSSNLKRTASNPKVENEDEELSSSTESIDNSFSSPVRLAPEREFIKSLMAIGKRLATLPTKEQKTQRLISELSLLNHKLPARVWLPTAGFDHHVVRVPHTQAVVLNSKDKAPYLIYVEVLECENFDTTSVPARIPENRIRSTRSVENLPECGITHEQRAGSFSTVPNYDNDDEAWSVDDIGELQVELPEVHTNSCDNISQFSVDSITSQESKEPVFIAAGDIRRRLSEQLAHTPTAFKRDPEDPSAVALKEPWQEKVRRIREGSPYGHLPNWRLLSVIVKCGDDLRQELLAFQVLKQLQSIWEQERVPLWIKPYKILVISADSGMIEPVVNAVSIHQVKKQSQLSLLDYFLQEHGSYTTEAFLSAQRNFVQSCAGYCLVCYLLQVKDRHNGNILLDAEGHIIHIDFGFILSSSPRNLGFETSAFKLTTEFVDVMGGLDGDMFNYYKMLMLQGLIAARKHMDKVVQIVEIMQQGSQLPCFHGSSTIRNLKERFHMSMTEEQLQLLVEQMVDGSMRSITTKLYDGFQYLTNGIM
How it was run: as §1

[14] = tested on: NEK6, NEK7; details: 1 μM, 90 minutes, BCWM.1 cells
How it was run: as §1

[15] = biological target: CaMK2g (Homo sapiens (Human), UniProt Q13555); details: 1 μM, 90 minutes, BCWM.1 cells
Sequence of CaMK2g (Q13555 whole entry): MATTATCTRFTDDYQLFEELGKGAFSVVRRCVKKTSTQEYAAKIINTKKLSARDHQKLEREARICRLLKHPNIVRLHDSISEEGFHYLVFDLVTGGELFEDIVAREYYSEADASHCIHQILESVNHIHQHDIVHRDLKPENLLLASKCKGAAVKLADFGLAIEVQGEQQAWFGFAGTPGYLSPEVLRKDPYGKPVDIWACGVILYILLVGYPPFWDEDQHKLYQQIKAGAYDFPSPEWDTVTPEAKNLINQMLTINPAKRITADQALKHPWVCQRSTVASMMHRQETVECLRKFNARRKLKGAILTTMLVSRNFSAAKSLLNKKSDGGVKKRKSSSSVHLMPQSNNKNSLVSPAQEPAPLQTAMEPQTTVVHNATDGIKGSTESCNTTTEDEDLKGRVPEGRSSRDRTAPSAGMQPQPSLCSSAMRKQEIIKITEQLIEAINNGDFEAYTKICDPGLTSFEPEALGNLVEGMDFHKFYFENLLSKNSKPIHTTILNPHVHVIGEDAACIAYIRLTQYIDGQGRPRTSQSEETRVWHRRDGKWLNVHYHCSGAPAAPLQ
How it was run: as §1

[16] = biological target: MAST3 (Homo sapiens (Human), UniProt O60307); details: 1 μM, 90 minutes, BCWM.1 cells
How it was run: as §1

[17] = biological target: STLK5 (Homo sapiens (Human), UniProt Q7RTN6); details: 1 μM, 90 minutes, BCWM.1 cells
Sequence of STLK5 (Q7RTN6 whole entry): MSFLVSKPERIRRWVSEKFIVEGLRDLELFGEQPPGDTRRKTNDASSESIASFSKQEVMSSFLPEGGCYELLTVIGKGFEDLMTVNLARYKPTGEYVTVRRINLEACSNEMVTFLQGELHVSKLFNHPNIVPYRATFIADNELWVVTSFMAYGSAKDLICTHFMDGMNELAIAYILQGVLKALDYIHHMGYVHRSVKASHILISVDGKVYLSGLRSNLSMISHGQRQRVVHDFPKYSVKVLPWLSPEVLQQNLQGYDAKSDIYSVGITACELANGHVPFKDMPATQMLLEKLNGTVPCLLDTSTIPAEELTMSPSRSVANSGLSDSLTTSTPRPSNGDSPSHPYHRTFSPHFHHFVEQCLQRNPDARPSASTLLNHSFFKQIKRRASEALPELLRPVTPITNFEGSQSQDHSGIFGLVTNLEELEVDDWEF
How it was run: as §1

[18] = tested on: SRPK1, SRPK2; details: 1 μM, 90 minutes, BCWM.1 cells
How it was run: as §1

[19] = biological target: AurB (Homo sapiens (Human), UniProt Q96GD4); details: 1 μM, 90 minutes, BCWM.1 cells
Sequence of AurB (Q96GD4 whole entry): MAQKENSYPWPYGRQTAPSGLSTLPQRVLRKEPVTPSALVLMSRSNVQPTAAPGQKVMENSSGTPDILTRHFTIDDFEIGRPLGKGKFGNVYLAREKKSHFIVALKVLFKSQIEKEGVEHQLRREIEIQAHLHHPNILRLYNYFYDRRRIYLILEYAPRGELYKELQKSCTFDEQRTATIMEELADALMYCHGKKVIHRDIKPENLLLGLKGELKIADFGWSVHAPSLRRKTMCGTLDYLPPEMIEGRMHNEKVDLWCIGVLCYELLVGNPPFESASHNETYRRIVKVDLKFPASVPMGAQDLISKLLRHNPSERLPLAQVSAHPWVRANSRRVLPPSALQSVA
How it was run: as §1

[20] = biological target: TEC (Homo sapiens (Human), UniProt P42680); details: 1 μM, 90 minutes, BCWM.1 cells
Sequence of TEC (P42680 whole entry): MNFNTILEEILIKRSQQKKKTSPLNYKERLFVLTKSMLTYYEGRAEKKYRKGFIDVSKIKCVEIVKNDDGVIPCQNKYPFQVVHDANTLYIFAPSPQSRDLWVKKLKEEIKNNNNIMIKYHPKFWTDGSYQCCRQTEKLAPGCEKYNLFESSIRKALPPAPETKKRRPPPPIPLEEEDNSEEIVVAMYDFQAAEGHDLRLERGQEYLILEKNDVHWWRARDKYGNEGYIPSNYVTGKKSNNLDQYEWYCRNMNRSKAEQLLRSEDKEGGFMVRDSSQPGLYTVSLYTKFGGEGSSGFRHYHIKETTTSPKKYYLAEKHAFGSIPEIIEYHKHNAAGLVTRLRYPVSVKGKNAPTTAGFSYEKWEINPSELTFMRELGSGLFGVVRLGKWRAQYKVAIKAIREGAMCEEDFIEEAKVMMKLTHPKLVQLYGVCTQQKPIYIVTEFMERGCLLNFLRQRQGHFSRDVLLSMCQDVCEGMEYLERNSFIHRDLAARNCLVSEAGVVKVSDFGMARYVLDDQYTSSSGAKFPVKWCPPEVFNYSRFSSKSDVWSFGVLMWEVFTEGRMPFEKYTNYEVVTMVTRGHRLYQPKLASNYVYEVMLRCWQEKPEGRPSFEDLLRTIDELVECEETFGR
How it was run: as §1

[21] = biological target: MAP3K6 (Homo sapiens (Human), UniProt O95382); details: 1 μM, 90 minutes, BCWM.1 cells
How it was run: as §1

[22] = biological target: MELK (Homo sapiens (Human), UniProt Q14680); details: 1 μM, 90 minutes, BCWM.1 cells
How it was run: as §1

[23] = biological target: NEK7 (Homo sapiens (Human), UniProt Q8TDX7); details: 1 μM, 90 minutes, BCWM.1 cells
How it was run: as §1

[24] = biological target: MARK2 (Homo sapiens (Human), UniProt Q7KZI7); details: 1 μM, 90 minutes, BCWM.1 cells
How it was run: as §1

[25] = biological target: LRRK2 (Homo sapiens (Human), UniProt Q5S007); details: 1 μM, 90 minutes, BCWM.1 cells
How it was run: as §1

[26] = biological target: PIK3CG (Homo sapiens (Human), UniProt P48736); details: 1 μM, 90 minutes, BCWM.1 cells
How it was run: as §1

[27] = tested on: MAST1, MAST2; details: 1 μM, 90 minutes, BCWM.1 cells
How it was run: as §1

[28] = biological target: GSK3B (Homo sapiens (Human), UniProt P49841); details: GSK3B; 1 μM, 90 minutes, BCWM.1 cells
How it was run: as §1

[29] = biological target: CDC2 (Homo sapiens (Human), UniProt P06493); details: 1 μM, 90 minutes, BCWM.1 cells
Sequence of CDC2 (P06493 whole entry): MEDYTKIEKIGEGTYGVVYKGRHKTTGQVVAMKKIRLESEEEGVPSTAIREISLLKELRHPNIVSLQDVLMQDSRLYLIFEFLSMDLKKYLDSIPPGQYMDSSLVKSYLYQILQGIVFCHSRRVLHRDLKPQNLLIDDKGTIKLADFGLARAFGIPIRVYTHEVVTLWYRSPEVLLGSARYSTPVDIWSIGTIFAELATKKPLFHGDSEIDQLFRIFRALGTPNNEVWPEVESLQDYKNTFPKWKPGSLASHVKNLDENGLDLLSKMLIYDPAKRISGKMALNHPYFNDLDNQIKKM
How it was run: as §1

[30] = biological target: CaMK1d (Homo sapiens (Human), UniProt Q8IU85); details: 1 μM, 90 minutes, BCWM.1 cells
Sequence of CaMK1d (Q8IU85 whole entry): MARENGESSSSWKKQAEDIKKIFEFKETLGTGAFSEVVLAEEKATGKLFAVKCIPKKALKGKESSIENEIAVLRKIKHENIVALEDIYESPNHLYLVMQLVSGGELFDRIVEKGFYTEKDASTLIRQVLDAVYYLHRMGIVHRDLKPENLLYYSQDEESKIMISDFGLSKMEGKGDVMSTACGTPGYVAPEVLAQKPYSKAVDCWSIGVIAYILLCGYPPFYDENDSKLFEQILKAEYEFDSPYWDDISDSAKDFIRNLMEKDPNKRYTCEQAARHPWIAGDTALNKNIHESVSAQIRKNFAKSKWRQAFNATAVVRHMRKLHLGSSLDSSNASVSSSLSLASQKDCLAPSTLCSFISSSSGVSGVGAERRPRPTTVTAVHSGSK
How it was run: as §1

[31] = biological target: TLK2 (Homo sapiens (Human), UniProt Q86UE8); details: 1 μM, 90 minutes, BCWM.1 cells
How it was run: as §1

[32] = biological target: BTK (Homo sapiens (Human), UniProt Q06187); details: 1 μM, 90 minutes, BCWM.1 cells
Sequence of BTK (Q06187 whole entry, looked up): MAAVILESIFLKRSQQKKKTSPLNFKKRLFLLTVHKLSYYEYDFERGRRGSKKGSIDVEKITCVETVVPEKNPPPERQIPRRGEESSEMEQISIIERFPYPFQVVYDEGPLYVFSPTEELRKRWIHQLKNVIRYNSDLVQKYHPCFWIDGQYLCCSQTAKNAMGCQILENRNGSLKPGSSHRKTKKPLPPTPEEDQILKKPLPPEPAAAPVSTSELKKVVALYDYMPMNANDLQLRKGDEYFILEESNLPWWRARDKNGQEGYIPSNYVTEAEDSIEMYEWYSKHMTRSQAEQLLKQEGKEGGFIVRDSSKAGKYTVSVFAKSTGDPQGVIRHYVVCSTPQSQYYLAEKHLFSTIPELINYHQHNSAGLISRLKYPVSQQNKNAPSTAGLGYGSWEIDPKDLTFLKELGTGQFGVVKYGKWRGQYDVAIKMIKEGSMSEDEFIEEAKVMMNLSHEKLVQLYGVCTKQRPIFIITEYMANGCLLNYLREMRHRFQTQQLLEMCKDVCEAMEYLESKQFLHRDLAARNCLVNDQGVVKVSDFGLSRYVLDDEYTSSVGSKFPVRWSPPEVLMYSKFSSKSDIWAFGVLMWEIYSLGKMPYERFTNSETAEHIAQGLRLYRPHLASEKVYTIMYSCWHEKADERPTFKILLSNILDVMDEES
How it was run: as §1

[33] = biological target: MST2 (Homo sapiens (Human), UniProt Q13188); details: 1 μM, 90 minutes, BCWM.1 cells
How it was run: as §1

[34] = tested on: AMPKa1, AMPKa2; details: 1 μM, 90 minutes, BCWM.1 cells
How it was run: as §1

[35] = biological target: NLK (Homo sapiens (Human), UniProt Q9UBE8); details: 1 μM, 90 minutes, BCWM.1 cells
How it was run: as §1

[36] = biological target: YSK1 (Homo sapiens (Human), UniProt O00506); details: 1 μM, 90 minutes, BCWM.1 cells
Sequence of YSK1 (O00506 whole entry): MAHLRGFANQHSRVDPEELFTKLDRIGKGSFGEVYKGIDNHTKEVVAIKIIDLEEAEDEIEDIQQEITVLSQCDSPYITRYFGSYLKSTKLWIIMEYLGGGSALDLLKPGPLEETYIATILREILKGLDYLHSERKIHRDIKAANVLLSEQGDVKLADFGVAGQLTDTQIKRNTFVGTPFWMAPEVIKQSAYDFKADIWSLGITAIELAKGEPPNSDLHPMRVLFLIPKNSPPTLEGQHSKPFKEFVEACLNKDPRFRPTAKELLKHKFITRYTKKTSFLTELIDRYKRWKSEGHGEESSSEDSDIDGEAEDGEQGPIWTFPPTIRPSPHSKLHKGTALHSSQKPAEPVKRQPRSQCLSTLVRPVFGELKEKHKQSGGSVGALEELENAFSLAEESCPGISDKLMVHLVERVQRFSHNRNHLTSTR
How it was run: as §1

[37] = biological target: CSK (Homo sapiens (Human), UniProt P41240); details: 1 μM, 90 minutes, BCWM.1 cells
Sequence of CSK (P41240 whole entry): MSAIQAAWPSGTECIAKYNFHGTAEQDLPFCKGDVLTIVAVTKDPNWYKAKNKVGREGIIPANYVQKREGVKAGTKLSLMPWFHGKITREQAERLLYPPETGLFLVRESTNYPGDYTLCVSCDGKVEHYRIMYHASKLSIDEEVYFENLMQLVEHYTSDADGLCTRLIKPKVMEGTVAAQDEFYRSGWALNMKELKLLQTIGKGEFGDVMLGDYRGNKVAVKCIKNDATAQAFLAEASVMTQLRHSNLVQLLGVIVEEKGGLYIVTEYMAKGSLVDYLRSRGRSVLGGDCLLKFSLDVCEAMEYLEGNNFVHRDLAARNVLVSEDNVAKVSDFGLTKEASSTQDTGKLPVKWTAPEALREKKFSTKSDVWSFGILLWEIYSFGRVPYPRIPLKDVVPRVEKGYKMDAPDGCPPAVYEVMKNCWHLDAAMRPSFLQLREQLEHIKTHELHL
How it was run: as §1

[38] = biological target: TAK1 (Homo sapiens (Human), UniProt O43318); details: 1 μM, 90 minutes, BCWM.1 cells
How it was run: as §1

[39] = biological target: NEK1 (Homo sapiens (Human), UniProt Q96PY6); details: 1 μM, 90 minutes, BCWM.1 cells
How it was run: as §1

[40] = biological target: BRAF (Homo sapiens (Human), UniProt P15056); details: 1 μM, 90 minutes, BCWM.1 cells
How it was run: as §1

[41] = biological target: CDK9 (Homo sapiens (Human), UniProt P50750); details: 1 μM, 90 minutes, BCWM.1 cells
How it was run: as §1

## C=CC(=O)N1CCC(Cn2ccc(Nc3ncc(C(=O)Nc4c(C)cccc4Cl)s3)n2)C1 (centres unmarked) [II-1]
[1]
  % change of MS signal compared to control sample: 12.7%
[2]
  % change of MS signal compared to control sample: 22.3%
[3]
  % change of MS signal compared to control sample: −8.1%
[4]
  % change of MS signal compared to control sample: 92.4%
[5]
  % change of MS signal compared to control sample: 13.8%
[6]
  % change of MS signal compared to control sample: −55.3%
[7]
  % change of MS signal compared to control sample: −4.7%
[8]
  % change of MS signal compared to control sample: −22.4%
[9]
  % change of MS signal compared to control sample: 17.4%
[10]
  % change of MS signal compared to control sample: 24.7%
[11]
  % change of MS signal compared to control sample: −19.0%
[12]
  % change of MS signal compared to control sample: −0.6%
[13]
  % change of MS signal compared to control sample: 7.2% and 13.7%
[14]
  % change of MS signal compared to control sample: −0.2%
[15]
  % change of MS signal compared to control sample: −17.5%
[16]
  % change of MS signal compared to control sample: 3.8%
[17]
  % change of MS signal compared to control sample: 2.6% and 3.8%
[18]
  % change of MS signal compared to control sample: 0.0%
[19]
  % change of MS signal compared to control sample: −7.2%
[20]
  % change of MS signal compared to control sample: 91.5% and 80.8%
[21]
  % change of MS signal compared to control sample: 18.9%
[22]
  % change of MS signal compared to control sample: 4.2%
[23]
  % change of MS signal compared to control sample: −8.5%
[24]
  % change of MS signal compared to control sample: 15.4%
[25]
  % change of MS signal compared to control sample: −20.9%
[26]
  % change of MS signal compared to control sample: −45.9%
[27]
  % change of MS signal compared to control sample: −81.3%
[28]
  % change of MS signal compared to control sample: −5.1%
[29]
  % change of MS signal compared to control sample: −5.2% and 2.7%
[30]
  % change of MS signal compared to control sample: −7.9% and −2.8%
[31]
  % change of MS signal compared to control sample: 7.3%
[32]
  % change of MS signal compared to control sample: 97.1% and >90%
[33]
  % change of MS signal compared to control sample: 14.7%
[34]
  % change of MS signal compared to control sample: −19.4% and −27.3%
[35]
  % change of MS signal compared to control sample: 3.7%
[36]
  % change of MS signal compared to control sample: −27.4%
[37]
  % change of MS signal compared to control sample: 26.2% and 32.5%
[38]
  % change of MS signal compared to control sample: 25.6%
[39]
  % change of MS signal compared to control sample: 14.9%
[40]
  % change of MS signal compared to control sample: 6.9%
[41]
  % change of MS signal compared to control sample: −57.0%
